# Reference: publication PMC6921279 (Frontiers in Endocrinology, 2019)
# Ends that are not written are not given here.
# Columns and labels:
# EGFR = conditions: Ucn1, CRF1R-expressing HEK293; cited from earlier work
# [1] = test system: basal ERK1/2 or Akt phosphorylation; experiment: Basal ERK1/2 and Akt phosphorylation in COS-7 cells expressing CRF1R; format: cell-based; conditions: 1 µM BIM, 30 min
# Description: The protocols for measuring total and phosphorylated ERK1/2, c-Src, PYK2, Akt, and EGFR have been previously published ([28], [29]). After cells were cultured to 60–70% confluence, they were serum-deprived for 24 h. On the day of the experiment, cells were treated with the indicated ligands and inhibitors. […] After treatment, cells were placed on ice, the media was aspirated, and the cells were washed twice with ice-cold PBS and lysed in 100 μl of Laemmli sample buffer 1X. The lysates were briefly sonicated, heated at 95°C for 5 min, and centrifuged for 5 min at 14,000 rpm. Resulting supernatants were loaded in separate lanes of a 10% SDS-PAGE gels and electrophoresed. Next, Western transfer on to PDVF membranes was completed. The Western blots were then probed with specific antibodies targeting phosphorylated and non-phosphorylated forms of ERK1/2, c-Src, PYK2, Akt, and EGFR for primary immunodetection. […] The labeled bands were quantified using the Quantity One 4.6.3 software program (Bio-Rad). […]
# Total cell lysates were separated by SDS-PAGE and analyzed by immunoblotting with anti-p-Akt Ser473 or anti-p-ERK1/2 Thr202/Tyr204, as described in materials and methods. […]
# [2] = test system: PMA-stimulated ERK1/2 phosphorylation; experiment: Modulation of PMA-stimulated ERK1/2 phosphorylation in COS-7 cells; format: cell-based; conditions: BIM 1 μM, 30 min pretreatment; 100 nM PMA, 15 min
# Description: COS-7 cells (from the American Type Culture Collection) were cultured at 37°C in a humidified atmosphere of 95% air, 5% CO2, in DMEM supplemented with 10% FBS, 100 μg/ml streptomycin, and 100 units/ml penicillin (COS-7 growth medium). Transient transfections were performed using LipofectAMINE (Life Technologies: Gaithersburg, MD) as described previously ([27]). Cells were seeded at 8 × 10^5 cells/10-cm dish in COS-7 medium and cultured for 3 days before transfection. COS-7 cells were transfected in 5 ml/dish OptiMEM containing 10 μg/ml LipofectAMINE with empty vector, pcDNA3 encoding the HA-CRF1R or the HA-CRF1R-Δ386 mutant. […]
# The protocols for measuring total and phosphorylated ERK1/2, c-Src, PYK2, Akt, and EGFR have been previously published ([28], [29]). […] The labeled bands were quantified using the Quantity One 4.6.3 software program (Bio-Rad).
# Figure 2 CRF-induced ERK1/2 phosphorylation is dependent on Gi protein. […] Total cell lysates were separated by SDS-PAGE and analyzed by immunoblotting with anti-p-ERK1/2 Thr^202/Tyr^204, as described in Materials and Methods. ERK1/2 phosphorylation was quantitated by densitometry, and mean values were plotted from five independent experiments. […]
# Total cell lysates were separated by SDS-PAGE and analyzed by immunoblotting with anti-p-ERK1/2 Thr202/Tyr204, as described in materials and methods. […]
# [3] = test system: CRF1R-mediated ERK1/2 phosphorylation; experiment: Modulation of CRF-stimulated ERK1/2 phosphorylation in COS-7 cells expressing HA-CRF1R; format: cell-based; conditions: 30 min pretreatment, 100 nM CRF, 5 min
# Description: Plasmid pRK5 encoding the carboxyl terminus of βARK that contains its βγ-binding domain (ct-βARK) was kindly provided by Dr. W. Koch (Center for Translational Medicine, Temple University, Philadelphia, PA), which is a scavenger for G protein βγ subunits ([25]). […] Plasmid pUSEamp encoding dominant-negative Akt-K179M (dn-Akt) was from Upstate Biotechnology (Lake Placid, NY).
# COS-7 cells (from the American Type Culture Collection) were cultured at 37°C in a humidified atmosphere of 95% air, 5% CO2, in DMEM supplemented with 10% FBS, 100 μg/ml streptomycin, and 100 units/ml penicillin (COS-7 growth medium). Transient transfections were performed using LipofectAMINE (Life Technologies: Gaithersburg, MD) as described previously ([27]). Cells were seeded at 8 × 10^5 cells/10-cm dish in COS-7 medium and cultured for 3 days before transfection. COS-7 cells were transfected in 5 ml/dish OptiMEM containing 10 μg/ml LipofectAMINE with empty vector, pcDNA3 encoding the HA-CRF1R or the HA-CRF1R-Δ386 mutant. […] After replacing the transfection medium with fresh growth medium, transfected COS-7 cells were cultured for 1 day. Subsequently, cells were re-seeded in 6-well plates and cultured for an additional day prior to the experiment.
# The protocols for measuring total and phosphorylated ERK1/2, c-Src, PYK2, Akt, and EGFR have been previously published ([28], [29]). After cells were cultured to 60–70% confluence, they were serum-deprived for 24 h. On the day of the experiment, cells were treated with the indicated ligands and inhibitors. […] After treatment, cells were placed on ice, the media was aspirated, and the cells were washed twice with ice-cold PBS and lysed in 100 μl of Laemmli sample buffer 1X. The lysates were briefly sonicated, heated at 95°C for 5 min, and centrifuged for 5 min at 14,000 rpm. Resulting supernatants were loaded in separate lanes of a 10% SDS-PAGE gels and electrophoresed. Next, Western transfer on to PDVF membranes was completed. The Western blots were then probed with specific antibodies targeting phosphorylated and non-phosphorylated forms of ERK1/2, c-Src, PYK2, Akt, and EGFR for primary immunodetection. After blots were probed with horseradish peroxidase-conjugated secondary antibody, protein bands were visualized with enhanced chemiluminescence ECL reagent (Amersham Pharmacia Biotech, Piscataway, NJ or Pierce Biotechnology, Rockford, IL) and scanned using the GS-800 Calibrated Imaging Densitometer (Bio-Rad). The labeled bands were quantified using the Quantity One 4.6.3 software program (Bio-Rad).
# Total cell lysates were separated by SDS-PAGE and analyzed by immunoblotting with anti-p-ERK1/2 Thr^202/Tyr^204, as described in Materials and Methods. ERK1/2 phosphorylation was quantitated by densitometry, and mean values were plotted from five independent experiments.
# Total cell lysates were separated by SDS-PAGE and analyzed by immunoblotting with anti-p-ERK1/2 Thr^202/Tyr^204 (A–D) or anti-p-EGFR Tyr^1068 (E), as described in Materials and Methods. ERK1/2 and EGFR phosphorylation were quantitated by densitometry, and mean values were plotted from three to five independent experiments.
# Total cell lysates were separated by SDS-PAGE and analyzed by immunoblotting with anti-p-ERK1/2 Thr^202/Tyr^204, as described in Materials and Methods. ERK1/2 phosphorylation was quantitated by densitometry, and mean values were plotted from three to five independent experiments.
# [4] = test system: CATH.a, rat fetal microglial, locus coeruleus, and transfected CHO cells; conditions: H89; cited from earlier work
# Source text: (§1) Defining the molecular mechanisms for ERK1/2 signaling by a GPCR has become a significant focus of signal transduction research due to the multifaceted pathways mediating signaling via the ERK1/2-MAP kinase cascade. A significant role of the ERK1/2-MAP kinase pathway has been recognized in the biological action of both CRF1R and CRF2R. ERK1/2 is widely distributed in the brain and is considered an essential regulator of the molecular processes involved in response to stress ([6], [64]). It is well-established that most GPCRs signal via ERK1/2-MAP kinase cascades through distinct Gi-, Gs-, and ...
# fetal hippocampal cells = conditions: H89 pretreatment; cited from earlier work
# Source text: as §1
# [5] = test system: CRF1R-expressing SK-N-MC neuroblastoma cells; experiment: ERK1/2 phosphorylation in CRF1R-expressing SK-N-MC neuroblastoma cells; format: cell-based; conditions: 100 ng/ml FGF, 2 or 5 min
# Description: The protocols for measuring total and phosphorylated ERK1/2, c-Src, PYK2, Akt, and EGFR have been previously published ([28], [29]). After cells were cultured to 60–70% confluence, they were serum-deprived for 24 h. On the day of the experiment, cells were treated with the indicated ligands and inhibitors. […] After treatment, cells were placed on ice, the media was aspirated, and the cells were washed twice with ice-cold PBS and lysed in 100 μl of Laemmli sample buffer 1X. The lysates were briefly sonicated, heated at 95°C for 5 min, and centrifuged for 5 min at 14,000 rpm. Resulting supernatants were loaded in separate lanes of a 10% SDS-PAGE gels and electrophoresed. Next, Western transfer on to PDVF membranes was completed. The Western blots were then probed with specific antibodies targeting phosphorylated and non-phosphorylated forms of ERK1/2, c-Src, PYK2, Akt, and EGFR for primary immunodetection. […] The labeled bands were quantified using the Quantity One 4.6.3 software program (Bio-Rad).
# Supplementary Figure S2. […] Total cell lysates were separated by SDS-PAGE and analyzed by immunoblotting with anti-p-ERK1/2 Thr202/Tyr204, as described in materials and methods. […]
compound,measurement,setting,value
"Ucn1: urocortin 1 (DNPSLSIDLTFHLLRTLLELARTQSQRERAEQNRIIFDSV; ends and bridges not checked; UniProt P55089 83-122, looked up)",EGFR transactivation,EGFR,stimulated EGFR transactivation
"CN(C)CCCn1cc(C2=C(c3c[nH]c4ccccc34)C(=O)NC2=O)c2ccccc21 [BIM, bisindolylmaleimide I]",effect on basal ERK1/2 activation,[1],small increase in ERK1/2 activation
same,effect on PMA-induced ERK1/2 phosphorylation,[2],inhibited ERK1/2 phosphorylation resulting from PMA-induced PKC activation
same,"CRF-stimulated ERK1/2 activation, fold increase",[3]; BIM 1 μM,~ 1.6 -fold increase over CRF stimulation
O=S(=O)(NCCNC/C=C/c1ccc(Br)cc1)c1cccc2cnccc12 [H89],effect on CRF-stimulated ERK1/2 phosphorylation,[3]; H89 500 nM,failed to inhibit CRF-stimulated ERK1/2 phosphorylation
same,effect on CRF1R-mediated ERK signaling,[4],failed to inhibit CRF1R-mediated ERK signaling
same,effect on CRF1R-mediated ERK phosphorylation,fetal hippocampal cells,only produced a small reduction in CRF1R-mediated ERK phosphorylation
fibroblast growth factor,ERK1/2 phosphorylation,[5],induced strong ERK1/2 phosphorylation
